Values of other authors as cited in PMC7867784 (Translational Lung Cancer Research, 2021).

Test system: RET-rearranged NSCLC
Conditions: cited from earlier work; for response rate and PFS in NSCLC with RET rearrangement: recent clinical trials

SMILES	response rate (RET-rearranged NSCLC, 7/25 cases) [%]	median PFS (RET-rearranged NSCLC) [months]	response rate and PFS in NSCLC with RET rearrangement
COc1cc2nccc(Oc3ccc(NC(=O)C4(C(=O)Nc5ccc(F)cc5)CC4)cc3)c2cc1OC [cabozantinib]	28	5.5	
CO[C@]1(C(=O)N[C@@H](C)c2ccc(-n3cc(F)cn3)nc2)CC[C@H](c2nc(C)cc(Nc3cc(C)[nH]n3)n2)CC1 [pralsetinib]			high response rate and prolonged PFS
COc1ccc(CN2C3CC2CN(c2ccc(-c4cc(OCC(C)(C)O)cn5ncc(C#N)c45)cn2)C3)cn1 [selpercatinib]			high response rate and prolonged PFS
